This is an account of results in patent EP0270692A1, “ANTIARRHYTHMIC AGENT” (KYOWA HAKKO KOGYO CO., LTD., priority 1986, dated 1988).

Data set [1] has as its system chloroform-induced ventricular arrhythmias. As to the kind of experiment: Mouse chloroform-induced ventricular arrhythmias test. In kind it is in vivo, DD-strain mice. The following applies: for Anti-arrhythmic Activity: 100 mg/kg orally, effective when two or more of three examples kept 720 or less heart beat/min for 30 seconds. As for the experimental part:
Antiarrhythmic activity was examined according to mouse chloroform-induced ventricular arrhythmias test.
DD-strain mice weighing 18 -22 g were abstinent from food and water for 4-5 hours and antiarrhythmic activity was examined according to the Block's method [Life Science 28, 2623 (1981)]. Drugs tested were orally administered (100 mg/kg) and the mice were exposed to chloroform. After stop of respiration, electrocardiogram was measured according to standard limb leading method. The case where 720 or less heart beat/min was maintained for 30 seconds was regarded as effective.
The test compound was judged as being effective when two or more examples were effective among three examples.

For data set [2], the system named is left atrium. Put plainly: Reduction of amplitude of myocardial contractile force in excised left atrium. Details: species or system Male Hartley-strain guinea pigs. The text has this:
In Table 2, Test Nos. 1 and 4 are tests on antiarrhythmic activity and Test No. 3, on anticholine activity and Test No. 5, on side effect.

The next data set concerns male dd-strain mice. Put plainly: Test for acute toxicity (MLD; LD50). The following applies: mouse, in vivo. How it is done: (§1) Groups of 5 male dd-strain mice weighing 20 ±1 g were used. The test compounds were administered either orally (0.3 mg/kg) or intraperitoneally (0.1 mg/kg).
(§2) The MLD (minimum lethal dose) was determined by observing the mortality for 7 days after the administration.

Data set [3] is described as follows: Test for acute toxicity (MLD; LD50). The following applies: mouse, in vivo. As for the experimental part: as §1, §2
The subject of data set [4] is left atrium. Put plainly: Prolongation of effective refractory period in excised left atrium. Details: species or system Male Hartley-strain guinea pigs. The following applies: Cavia porcellus; guinea pig left atrium in Krebs-Henseleit solution, 31 ± 1°C; read-out: The concentration required to prolong effective refractory period by 30%. The text has this: (§3) In Table 2, Test Nos. 1 and 4 are tests on antiarrhythmic activity and Test No. 3, on anticholine activity and Test No. 5, on side effect. What is meant by the small ratio of Test No. 1 to that of Test No. 3 and the small ratio of Test No. 4 to that of Test No. 5 is that the compound has high therapeutic ratio (wide safety margin).

For a further data set, the system named is pupil size. As to the kind of experiment: Mydriasis activity test (anticholine activity). In kind it is in vivo, Male dd-strain mice. The following applies: oral; dose required to double the pupil size 30 minutes after administration.
Source text: as §3

The structures appear in SMILES notation. Counter-ions that a name gives are not always drawn. Like-named read-outs stand apart in the source and are kept apart here. Some results are limits rather than exact numbers.

As to `CCN(CC)CCNC1c2cc(C)ccc2OCc2ncccc21` (centres unmarked) [5-[2-diethylamino)-ethyl]amino-7-methyl-5,11-dihydro[1]benz-oxepino[3,4-b]pyridine, reference compound], in data set [1], the “Anti-arrhythmic Activity” value is given as “^*3 Ineffective”.

Usually ED50 stands for the dose at which the effect has come halfway, by size or by number of responders. By LD50 is commonly meant the dose expected to kill half of the subjects tested. In the case of `CCN(CC)CCNC1c2cc(OC)ccc2OCc2ncccc21` (centres unmarked) [1.5 Fumarate of Compound 1], the “Anti-arrhythmic Activity” value in data set [1] is reported as “Effective”. Also, the ED50 in data set [1] (mouse, oral, read-out: Chloroform-induced ventricular antiarrhythmic activity test ED50) amounted to 80 mg/kg. Moreover, the “The concentration required to reduce the amplitude of myocardial contractile force by 30%” value with left atrium [2] (guinea pig left atrium in Krebs-Henseleit solution, 31 ± 1°C) was 110 µg/mL. Besides, the “5/4 (ratio)” value in the data set with left atrium [2] (ratio of Test No. 5 (contractile force) to Test No. 4 (refractory period)) turned out to be 22.4. In addition, the “Acute Toxicity MLD i.p.” value with male dd-strain mice (ip) is “more than 100 mg/kg”. The “Acute Toxicity MLD p.o.” value with male dd-strain mice (po) is “more than 300 mg/kg”. Also, the LD50 at 72 h in data set [3] (iv, read-out: Acute toxicity test LD50 iv) was 93 mg/kg; in data set [3] (po, read-out: Acute toxicity test LD50 po), > 1000 mg/kg. Further, the EC30 in the data set with left atrium [4] amounted to 4.9 mg/L. Also, the “Mydriasis activity test ED100” value in the data set on pupil size stood at 235 mg/kg.
